Test results as given in US8217042B2, “Pyridopyrazines and their use as modulators of kinases” (Zentaris GmbH, priority 2005, dated 2012).
Structures can show the parent of a compound that is named as a salt.

Experiments:
[1] = system: Jnk1 + Jnk2; experiment: Cell-free kinase assay (ALPHA technology), Jnk1 + Jnk2; assay type: biochemical; conditions: at 10 μM or 100 μM* ATP, recombinant human kinases
Method: The inhibitory effect of the inventive compounds was tested on various human serine/threonine kinases, tyrosine kinases and lipid kinases in enzymatic assays. Recombinant human kinases, for example Erk2, PI3Kalpha, -beta, -gamma, -delta, p38alpha, p38gamma, Jnk1, Jnk2 and others were used, in some cases as full-length kinases, in some cases as truncated fragments—but at least consisting of the functional kinase domains. The commercial kinase proteins (Proqinase, Upstate) were used as recombinant fusion proteins with GST (glutathione S-transferase) tag or His tag. Depending on the substrate type, the different kinase reactions were quantified by means of suitable ALPHA™ beads (PerkinElmer). […]
(§1) The fluorescence was detected the next morning in a Fusion™ alpha instrument (Perkin Elmer).
(§2) The calculation of % inhibition values per substance concentration was done by means of the following formula from the raw data determined in the Fusion™ alpha:
(§3) The controls were each determined 8 times, the substance samples each twice. 0% control contained neither any ATP nor any substrate; the 100% control contained no test substance. The IC50 values were determined with GraphPadPrism.

[2] = target: T1, Erk2; experiment: Cell-free kinase assay (ALPHA technology), Erk2-ALPHA; assay type: biochemical; conditions: 10 μM ATP, recombinant human kinase
T1 construct: in some cases as full-length kinases, in some cases as truncated fragments; purchased Upstate 14-173
Method: (§4) The inhibitory effect of the inventive compounds was tested on various human serine/threonine kinases, tyrosine kinases and lipid kinases in enzymatic assays. Recombinant human kinases, for example Erk2, PI3Kalpha, -beta, -gamma, -delta, p38alpha, p38gamma, Jnk1, Jnk2 and others were used, in some cases as full-length kinases, in some cases as truncated fragments—but at least consisting of the functional kinase domains. The commercial kinase proteins (Proqinase, Upstate) were used as recombinant fusion proteins with GST (glutathione S-transferase) tag or His tag. Depending on the substrate type, the different kinase reactions were quantified by means of suitable ALPHA™ beads (PerkinElmer).
(§5) The substrate testing on the Erk assay is described in detail below. Selected test results of the Erk2, PI3Kalpha assays are cited below. […] The kinase reaction was then stopped by adding 10 μl of the ALPHA bead mix (10 μg/ml, #6760617/PerkinElmer), pre-incubated with anti-phospho MBP antibody (320 μM, #05-429/Upstate), in 25 mM Tris, 200 mM NaCl, 100 mM EDTA and 0.3% BSA, and left to stand overnight. • b) PI3K-ALPHAs (e.g. PI3Kalpha): The test substance, 1 ng of PI3Kalpha (#14-602, Upstate), 100 μM ATP and 20 μM PIP2 substrate (#P4508, Echelon) on a 384-well Optiplate (Perkin Elmer) for 1 h in 50 mM Hepes, 50 mM NaCl, 5 mM MgCl2, 0.05% Chaps, 5 mM DTT at pH 7.4. Subsequently, the kinase reaction was stopped by adding the ALPHA bead mix (10 μg/ml, #6760603/PerkinElmer), preincubated with 1 nM GST:Grp1 fusion protein (Upstate) and 15 nM biotinylated PIP3 (#C-39B6/Echelon) in 50 mM Hepes, 50 mM NaCl, 50 mM EDTA and 0.1% BSA, and left to stand overnight.
as §1, §2, §3

[3] = target: T2, PI3Kalpha (Homo sapiens, UniProt P42336); experiment: Cell-free kinase assay (ALPHA technology), PI3K-ALPHA; assay type: biochemical; conditions: 100 μM ATP, recombinant human kinase
T2 construct: in some cases as full-length kinases, in some cases as truncated fragments; purchased Upstate 14-602
Method: as §4, §5, §1, §2, §3

T2 sequence (P42336 whole entry, the tested form may be a part): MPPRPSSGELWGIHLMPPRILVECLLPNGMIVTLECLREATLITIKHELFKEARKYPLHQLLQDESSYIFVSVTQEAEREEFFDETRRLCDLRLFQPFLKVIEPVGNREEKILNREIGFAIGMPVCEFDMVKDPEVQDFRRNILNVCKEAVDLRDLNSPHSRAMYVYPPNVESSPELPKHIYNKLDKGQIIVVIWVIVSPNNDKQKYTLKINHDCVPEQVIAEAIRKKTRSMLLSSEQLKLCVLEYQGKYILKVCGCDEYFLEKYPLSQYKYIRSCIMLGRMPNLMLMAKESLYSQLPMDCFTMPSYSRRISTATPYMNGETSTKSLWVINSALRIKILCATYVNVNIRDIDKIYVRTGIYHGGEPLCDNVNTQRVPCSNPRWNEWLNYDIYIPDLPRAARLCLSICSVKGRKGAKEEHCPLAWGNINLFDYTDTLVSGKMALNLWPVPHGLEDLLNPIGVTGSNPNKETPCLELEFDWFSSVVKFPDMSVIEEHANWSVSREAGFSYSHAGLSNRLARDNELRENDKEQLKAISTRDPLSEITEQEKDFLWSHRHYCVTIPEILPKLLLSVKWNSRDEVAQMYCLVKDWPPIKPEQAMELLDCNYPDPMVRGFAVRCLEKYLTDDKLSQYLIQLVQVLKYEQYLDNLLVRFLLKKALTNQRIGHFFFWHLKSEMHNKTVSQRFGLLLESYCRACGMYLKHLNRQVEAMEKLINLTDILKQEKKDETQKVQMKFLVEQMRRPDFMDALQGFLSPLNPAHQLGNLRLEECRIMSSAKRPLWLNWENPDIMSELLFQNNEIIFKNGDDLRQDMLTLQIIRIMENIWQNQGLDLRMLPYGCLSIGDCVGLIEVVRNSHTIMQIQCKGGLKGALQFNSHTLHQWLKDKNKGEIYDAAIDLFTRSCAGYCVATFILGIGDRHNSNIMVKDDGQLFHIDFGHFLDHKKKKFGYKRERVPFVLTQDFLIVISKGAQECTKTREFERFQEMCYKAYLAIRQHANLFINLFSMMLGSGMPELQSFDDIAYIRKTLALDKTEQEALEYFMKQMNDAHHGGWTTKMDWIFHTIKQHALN
T2 sequence (P27986 whole entry partner, the tested form may be a part): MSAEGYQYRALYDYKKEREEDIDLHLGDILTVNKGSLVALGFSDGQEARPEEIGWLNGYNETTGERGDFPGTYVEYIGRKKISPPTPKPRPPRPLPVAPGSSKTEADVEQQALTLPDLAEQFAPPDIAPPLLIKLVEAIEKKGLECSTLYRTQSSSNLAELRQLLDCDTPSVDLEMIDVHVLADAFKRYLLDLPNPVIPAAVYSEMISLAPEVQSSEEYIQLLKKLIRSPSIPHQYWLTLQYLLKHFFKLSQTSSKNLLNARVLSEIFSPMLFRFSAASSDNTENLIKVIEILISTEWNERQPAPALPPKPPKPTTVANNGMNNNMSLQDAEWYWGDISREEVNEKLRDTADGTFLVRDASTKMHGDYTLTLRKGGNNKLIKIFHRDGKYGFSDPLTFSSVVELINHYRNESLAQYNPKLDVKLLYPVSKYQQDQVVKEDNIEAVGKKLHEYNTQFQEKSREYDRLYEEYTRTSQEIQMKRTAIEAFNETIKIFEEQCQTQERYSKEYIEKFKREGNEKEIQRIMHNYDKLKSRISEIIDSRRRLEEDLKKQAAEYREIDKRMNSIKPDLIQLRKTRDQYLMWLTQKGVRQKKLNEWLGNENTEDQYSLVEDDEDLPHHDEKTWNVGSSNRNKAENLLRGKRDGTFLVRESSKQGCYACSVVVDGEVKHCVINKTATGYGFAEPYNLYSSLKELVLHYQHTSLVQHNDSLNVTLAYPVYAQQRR
T1 sequence (P63085 whole entry, the tested form may be a part): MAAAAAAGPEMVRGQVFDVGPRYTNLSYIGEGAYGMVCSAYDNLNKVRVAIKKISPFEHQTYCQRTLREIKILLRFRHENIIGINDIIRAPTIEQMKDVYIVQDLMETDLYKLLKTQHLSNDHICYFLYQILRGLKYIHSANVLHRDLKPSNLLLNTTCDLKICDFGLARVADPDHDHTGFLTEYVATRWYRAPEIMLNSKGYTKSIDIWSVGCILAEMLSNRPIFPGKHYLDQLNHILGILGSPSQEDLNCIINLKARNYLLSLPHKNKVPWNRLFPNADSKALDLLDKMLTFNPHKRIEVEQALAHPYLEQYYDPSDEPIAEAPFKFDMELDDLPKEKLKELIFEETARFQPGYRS

Compound | IC50 [1] [µM] | IC50 [2] [nM] | IC50 [3] [µM] | melting point | also measured
CCNC(=O)Nc1ccc2ncc(-c3ccc(OC(=O)Oc4ccccc4)cc3)nc2n1 [Compound 11, 4-[6-(3-Ethylurea)pyrido[2,3-b]pyrazin-3-yl]phenyl phenyl carbonate] | > 100 |  |  |  | 
COc1cc(-c2cnc3ccc(NC(=O)NCCCCP(=O)(O)O)nc3n2)ccc1O [Compound 45, (4-{3-[3-(4-Hydroxy-3-methoxyphenyl)pyrido[2,3-b]pyrazin-6-yl]urea}butyl)phosphonic acid] | 0.974 | 243 | 12.5 |  | 
CCNC(=O)Nc1ccc2ncc(/C=C/COC)nc2n1 [Compound 6, 1-Ethyl-3-[3-((E)-3-methoxypropenyl)pyrido[2,3-b]pyrazin-6-yl]urea] |  | 2400 | 21.3 |  | 
CCNC(=O)Nc1ccc2ncc(/C=C/c3ccc(F)cc3)nc2n1 [Compound 27, 1-Ethyl-3-{3-[(E)-2-(4-fluorophenyl)vinyl]pyrido[2,3-b]pyrazin-6-yl}urea] |  |  |  | 217 to 219 °C | 
CCNC(=O)Nc1ccc2ncc(Nc3ccc(NC(C)=O)cc3)nc2n1 [Compound 53, N-{4-[6-(3-Ethylurea)pyrido[2,3-b]pyrazin-3-ylamino]phenyl}acetamide] | 20.4 | 16500 | 0.677 |  | 
CCNC(=O)Nc1ccc2ncc(C#CC3CC3)nc2n1 [Compound 3, 1-(3-Cyclopropylethynylpyrido[2,3-b]pyrazin-6-yl)-3-ethylurea] |  |  |  | 227 to 228 °C (dec.) | 
CCNC(=O)Nc1ccc2ncc(-c3cccc([Si](C)(C)C)c3)nc2n1 |  |  |  | 224 to 228 °C | 
CCNC(=O)Nc1ccc2ncc(-c3ccc(OC(=O)OCCOC)cc3)nc2n1 [Compound 55, 4-[6-(3-Ethylurea)pyrido[2,3-b]pyrazin-3-yl]phenyl 2-methoxyethyl carbonate hydrochloride] |  | 812 |  |  | IC50 ([1]; hydrochloride): 2.9 µM; IC50 ([3]; hydrochloride): 3.6 µM
COCCOC(=O)Oc1ccc(-c2cnc3ccc(NC(=O)NCCCCO)nc3n2)cc1 (as salt: hydrochloride) [Compound 58, 4-{6-[3-(4-Hydroxybutyl)urea]pyrido[2,3-b]pyrazin-3-yl}phenyl 2-methoxyethyl carbonate hydrochloride] |  |  |  | 165 to 168 °C | 
CCNC(=O)Nc1ccc2ncc(Nc3ccc(-c4ccsc4)cc3)nc2n1 [Compound 52, 1-Ethyl-3-[3-(4-thiophen-3-ylphenylamino)pyrido[2,3-b]pyrazin-6-yl]urea] |  |  |  | 264 to 267 °C | 
CCNC(=O)Nc1ccc2ncc(C#Cc3ccsc3)nc2n1 [Compound 2, 1-Ethyl-3-(3-thiophen-3-ylethynylpyrido[2,3-b]pyrazin-6-yl)urea] |  |  |  | 239 to 242 °C (dec.) | 
CCNC(=O)Nc1ccc2ncc(CCc3ccc(F)cc3)nc2n1 [Compound 26, 1-Ethyl-3-{3-[2-(4-fluorophenyl)ethyl]pyrido[2,3-b]pyrazin-6-yl}urea] |  |  |  | 207 to 209 °C | 
CCOP(=O)(CCCCNC(=O)Nc1ccc2ncc(-c3ccc(O)c(OC)c3)nc2n1)OCC [Compound 44, Diethyl (4-{3-[3-(4-hydroxy-3-methoxyphenyl)pyrido[2,3-b]pyrazin-6-yl]urea}butyl)phosphonate] | 8.4 | 2800 | 10.7 |  | 
CCNC(=O)Nc1ccc2ncc(Nc3ccc(C4CCCCC4)cc3)nc2n1 [Compound 47, 1-[3-(4-Cyclohexylphenylamino)pyrido[2,3-b]pyrazin-6-yl]-3-ethylurea] |  |  |  | 246 to 248 °C | 
COCCOC(=O)Oc1ccc(-c2cnc3ccc(NC(=O)NCCCCO)nc3n2)cc1 [Compound 58, 4-{6-[3-(4-Hydroxybutyl)urea]pyrido[2,3-b]pyrazin-3-yl}phenyl 2-methoxyethyl carbonate hydrochloride] | 2.5 | 763 | 4.3 |  | 
CCNC(=O)Nc1ccc(-c2cnc3ccc(NC(=O)NCC)nc3n2)cn1 [Compound 25, 1-Ethyl-3-{3-[6-(3-ethylurea)pyridin-3-yl]pyrido[2,3-b]pyrazin-6-yl}urea] | 24.2 | 3400 | 4.4 |  | 
